Test results as given in patent US20010055590A1, “Method for enhancing myoblast migration and invasion in the context of gene therapy” (priority 1999, published 2001).

B1: purified human plasmin (protein, UniProt P00747 20-580; P00747 581-810, looked up)
Plasmin heavy chain A: EPLDDYVNTQGASLFSVTKKQLGAGSIEECAAKCEEDEEFTCRAFQYHSKEQQCVIMAENRKSSIIIRMRDVVLFEKKVYLSECKTGNGKNYRGTMSKTKNGITCQKWSSTSPHRPRFSPATHPSEGLEENYCRNPDNDPQGPWCYTTDPEKRYDYCDILECEEECMHCSGENYDGKISKTMSGLECQAWDSQSPHAHGYIPSKFPNKNLKKNYCRNPDRELRPWCFTTDPNKRWELCDIPRCTTPPPSSGPTYQCLKGTGENYRGNVAVTVSGHTCQHWSAQTPHTHNRTPENFPCKNLDENYCRNPDGKRAPWCHTTNSQVRWEYCKIPSCDSSPVSTEQLAPTAPPELTPVVQDCYHGDGQSYRGTSSTTTTGKKCQSWSSMTPHRHQKTPENYPNAGLTMNYCRNPDADKGPWCFTTDPSVRWEYCNLKKCSGTEASVVAPPPVVLLPDVETPSEEDCMFGNGKGYRGKRATTVTGTPCQDWAAQEPHRHSIFTPETNPRAGLEKNYCRNPDGDVGGPWCYTTNPRKLYDYCDVPQCAAPSFDCGKPQVEPKKCPGR
Plasmin light chain B: VVGGCVAHPHSWPWQVSLRTRFGMHFCGGTLISPEWVLTAAHCLEKSPRPSSYKVILGAHQEVNLEPHVQEIEVSRLFLEPTRKDIALLKLSSPAVITDKVIPACLPSPNYVVADRTECFITGWGETQGTFGAGLLKEAQLPVIENKVCNRYEFLNGRVQSTELCAGHLAGGTDSCQGDSGGPLVCFEKDKYILQGVTSWGLGCARPNKPGVYVRVSRFVTWIEGVMRNN
modifications: Plasmin

Key:
[1] = tested on: mouse myoblasts; experiment: In vitro mouse myoblast migration assay (gelatin-coated membrane); assay type: cell-based; conditions: 12 hours; for effect on bFGF-stimulated mouse myoblast migration: 0.05 units/ml plasmin or 50 mM NAC in top chamber; for effect on migration stimulated by bFGF and fibronectin in combination: 0.05 units/ml plasmin or 50 mM NAC; for stimulation of mouse myoblast migration over the DMEM control: 25 ng/ml bFGF, 50 μg/ml fibronectin, 10 ng/ml HGF, 2 ng/ml TGF-β1; for effect on mouse myoblast migration: stimulant in bottom chamber
Description: Mouse myoblasts were previously isolated from hind limb muscles of 4-6 week old severe combined immunodeficient (SCID) mice and clonally purified from contaminating fibroblasts (Yao et al. “Primary myoblast-mediated gene: transfer: persistent expression of human factor IX in mice” Gene Therapy 1:99-107, 1994). Myoblasts (approximately 1×10^6 cells) were plated on 6 cm tissue culture plates coated with 0.5% gelatin (Sigma, St. Louis, Mo.) and grown in growth medium consisting of Dulbecco's Modified Eagle Medium (DMEM) (Gibco BRL, Gaithersburg Md.) supplemented with 20% fetal bovine serum (FBS; Gibco) and 0.5% chick embryo extract (CEE; Gibco). All animal studies were carried out following the institutional guidelines for ethical animal use. Human myoblasts were isolated using trypsin digestion from abdominal wall or chest wall muscle biopsies, and surgery. Written consent was obtained from all patients prior to biopsy isolation as approved by the University Hospital's Institutional Regulation Board on the use of human subjects. Cells were preplated on uncoated plates for 1 hour to separate muscle fibroblasts. […] All experiments were done with myoblasts of passage 7 or lower. Myoblast migration and invasion were examined using a commercially available in vitro cell migration and invasion assay kit (Biocoat, Becton Dickinson, Franklin Lakes, N.J.) as described by Albini et al. (A rapid in vitro assay for quantitating the invasive potential of tumor cells Cancer Res 47:3239-3245, 1987). Myoblasts were grown to approximately 70% confluence, rinsed three times in serum-free DMEM, followed by incubation for 3 hours in 0.2% bovine serum albumin (BSA) in DMEM to eliminate the effects of serum. Cells were then trypsinized and collected by centrifugation. Cells were resuspended in serum-free DMEM at a density of 1×10^5 cells/ml, and 0.5 ml aliquots of cell suspension were added to the top chamber. […] Fibronectin subfragments of 45 KDa (Sigma), 120 kDa (Gibco), 63 kDa (Retronectin, Takara) and 70 KDa (Sigma) were used alone or in combination. […] For migration studies, the upper chamber membrane was coated with 0.1% gelatin and cells were allowed to migrate for 8-12 hours, while for invasion studies, the upper membrane was coated with 5 μl of Matrigel® diluted to 5 mg/ml in sterile phosphate buffered saline (PBS) and cells were allowed to invade for 24 hours. The top side of the insert membrane was scrubbed free of cells using a cotton swab and the bottom side was stained using the Leukostat-I system (Fisher Diagnostics, Pittsburgh, Pa.). The number of cells per field was counted in 10 randomly selected fields and averaged for each condition. To evaluate the effects of inactivation or activation of MMPs, aliquots (0.05 units in 50 μl PBS) of purified human plasmin (Sigma) or 50 mM N-acetyl cysteine (NAC; Sigma) were added with the cells to the top chamber of the migration assay and growth factor was added to the bottom. […] Myoblasts (5×10^4 cells/well) were stimulated with various growth factors and fibronectin, and their ability to migrate or invade through a Matrigel® barrier (panel a, mouse myoblast migration at 12 hours; panel b, mouse myoblast invasion at 24 hours). […] Bars represent mean ±SEM from a minimum of 3 separate experiments. […] Further studies were done to elucidate the role of MMPs in cytokine-mediated mouse myoblast migration.

[2] = tested on: human myoblasts; experiment: In vitro human myoblast migration assay; assay type: cell-based; conditions: for effect on stimulated human myoblast migration: plasmin or NAC, FIG. 7c, migration induced by PDGF-BB; for stimulation of human myoblast migration over the BSA control level: 12 hour time point
Description: Mouse myoblasts were previously isolated from hind limb muscles of 4-6 week old severe combined immunodeficient (SCID) mice and clonally purified from contaminating fibroblasts (Yao et al. “Primary myoblast-mediated gene: transfer: persistent expression of human factor IX in mice” Gene Therapy 1:99-107, 1994). Myoblasts (approximately 1×10^6 cells) were plated on 6 cm tissue culture plates coated with 0.5% gelatin (Sigma, St. Louis, Mo.) and grown in growth medium consisting of Dulbecco's Modified Eagle Medium (DMEM) (Gibco BRL, Gaithersburg Md.) supplemented with 20% fetal bovine serum (FBS; Gibco) and 0.5% chick embryo extract (CEE; Gibco). All animal studies were carried out following the institutional guidelines for ethical animal use. Human myoblasts were isolated using trypsin digestion from abdominal wall or chest wall muscle biopsies, and surgery. Written consent was obtained from all patients prior to biopsy isolation as approved by the University Hospital's Institutional Regulation Board on the use of human subjects. Cells were preplated on uncoated plates for 1 hour to separate muscle fibroblasts. Approximately 95% of the cells were desmin-positive following immunohistochemical staining of representative culture samples, and were capable of differentiation into myotubes, indicating high purity of the myoblast preparation. All experiments were done with myoblasts of passage 7 or lower. Myoblast migration and invasion were examined using a commercially available in vitro cell migration and invasion assay kit (Biocoat, Becton Dickinson, Franklin Lakes, N.J.) as described by Albini et al. (A rapid in vitro assay for quantitating the invasive potential of tumor cells Cancer Res 47:3239-3245, 1987). Myoblasts were grown to approximately 70% confluence, rinsed three times in serum-free DMEM, followed by incubation for 3 hours in 0.2% bovine serum albumin (BSA) in DMEM to eliminate the effects of serum. Cells were then trypsinized and collected by centrifugation. Cells were resuspended in serum-free DMEM at a density of 1×10^5 cells/ml, and 0.5 ml aliquots of cell suspension were added to the top chamber. […] Fibronectin subfragments of 45 KDa (Sigma), 120 kDa (Gibco), 63 kDa (Retronectin, Takara) and 70 KDa (Sigma) were used alone or in combination. The growth factor concentrations used were those which could produce maximal effects as examined in the present studies by extending from values reported by Bischoff (“Chemotaxis of skeletal muscle satellite cells” Devel. Dynamics 208:505-515, 1997). For migration studies, the upper chamber membrane was coated with 0.1% gelatin and cells were allowed to migrate for 8-12 hours, while for invasion studies, the upper membrane was coated with 5 μl of Matrigel® diluted to 5 mg/ml in sterile phosphate buffered saline (PBS) and cells were allowed to invade for 24 hours. The top side of the insert membrane was scrubbed free of cells using a cotton swab and the bottom side was stained using the Leukostat-I system (Fisher Diagnostics, Pittsburgh, Pa.). The number of cells per field was counted in 10 randomly selected fields and averaged for each condition. To evaluate the effects of inactivation or activation of MMPs, aliquots (0.05 units in 50 μl PBS) of purified human plasmin (Sigma) or 50 mM N-acetyl cysteine (NAC; Sigma) were added with the cells to the top chamber of the migration assay and growth factor was added to the bottom. […] The effects of growth factors on human myoblast migration in vitro (12 hour time point) were somewhat different from those observed with mouse myoblasts. […] The greatly elevated level of migration of human myoblasts was due in part to the extremely low migration in the BSA control (basal level) of human cells compared to mouse cells. The largest effects on human myoblast migration were produced by fibronectin (100-fold), PDGF (about 62-fold), TGF-β (about 54-fold) and HGF (46-fold) over the control level, while bFGF produced only a 37-fold stimulation (FIG. 7a). […]

Row | Molecule | effect on migration stimulated by combination of bFGF and plasmin ([1]; 50 mM NAC) | effect on bFGF-stimulated mouse myoblast migration [1] | effect on migration stimulated by bFGF and fibronectin in combination [1] | effect on stimulated human myoblast migration [2] | stimulation of mouse myoblast migration over the DMEM control [1] [fold] | effect on mouse myoblast migration [1] | stimulation of human myoblast migration over the BSA control level [2] [fold] | effect alone on mouse myoblast migration compared to the control ([1]; 0.05 units/ml plasmin, no growth factor)
1 | CC(=O)N[C@@H](CS)C(=O)O [NAC, N-acetyl cysteine, reference compound] | dramatic reduction | efficiently reduced the effect of bFGF on mouse myoblast migration to a level similar to the BSA control | attenuated the effects | greatly reduced | – | – | – | –
2 | bovine basic fibroblast growth factor [bFGF] | – | – | – | – | 12 | stimulated migration of mouse myoblasts to various degrees | 37 | –
3 | human serum fibronectin | – | – | – | – | 14 | stimulated migration of mouse myoblasts to various degrees | 100 | –
4 | B1 | – | increased the migrational response to bFGF by nearly twofold | attenuated the effect | significantly increased | – | – | – | slightly negative effect
